Assay [1] can be described thus: Agonist activity at mGlu4a receptor assessed as inhibition of forskolin-stimulated cAMP production. Type of assay: functional, Homo sapiens.
The target of assay [2] is Metabotropic glutamate receptor 4 (Rattus norvegicus, UniProt P31423). The assay can be described thus: Agonist activity at rat mGlu4 receptor expressed in HEK293 cells coexpressing Gq/Gi and EAAC1 assessed as intracellular calcium production measured every 1.5 secs for 60 secs by Fluo-4-AM based fluorometry. Type of assay: functional, cell-based. For orientation: Calcium flux is commonly read through the fluorescence of an indicator in the cells.
Metabotropic glutamate receptor 4, sequence (P31423 whole entry): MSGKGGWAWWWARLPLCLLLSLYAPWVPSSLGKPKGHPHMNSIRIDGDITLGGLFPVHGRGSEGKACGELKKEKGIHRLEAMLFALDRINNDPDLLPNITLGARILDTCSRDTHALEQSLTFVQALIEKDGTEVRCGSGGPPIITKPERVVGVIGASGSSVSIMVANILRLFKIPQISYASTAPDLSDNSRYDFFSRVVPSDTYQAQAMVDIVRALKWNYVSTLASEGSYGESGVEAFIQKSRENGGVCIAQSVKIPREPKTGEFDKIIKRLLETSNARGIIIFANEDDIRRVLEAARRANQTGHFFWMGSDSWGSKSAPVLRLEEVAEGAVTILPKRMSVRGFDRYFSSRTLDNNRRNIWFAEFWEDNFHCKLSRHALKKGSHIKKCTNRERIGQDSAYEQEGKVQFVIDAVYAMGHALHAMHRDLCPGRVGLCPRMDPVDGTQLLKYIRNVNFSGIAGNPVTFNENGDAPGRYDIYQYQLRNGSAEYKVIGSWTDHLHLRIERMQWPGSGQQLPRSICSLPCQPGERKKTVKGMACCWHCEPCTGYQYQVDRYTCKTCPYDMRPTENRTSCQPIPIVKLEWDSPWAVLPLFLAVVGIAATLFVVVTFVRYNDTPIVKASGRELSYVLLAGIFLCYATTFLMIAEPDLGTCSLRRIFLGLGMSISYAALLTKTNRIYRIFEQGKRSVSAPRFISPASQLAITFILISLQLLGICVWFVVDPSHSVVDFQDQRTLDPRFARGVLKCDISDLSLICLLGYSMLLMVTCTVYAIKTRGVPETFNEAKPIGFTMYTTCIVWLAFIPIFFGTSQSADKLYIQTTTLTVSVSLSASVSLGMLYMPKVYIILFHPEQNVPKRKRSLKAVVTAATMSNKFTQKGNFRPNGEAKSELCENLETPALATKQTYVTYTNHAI

Assay [3] addresses Metabotropic glutamate receptor 4 (Rattus norvegicus) (UniProt P31423). The assay can be described thus: Ratio of glutamate EC50 to compound EC50 for rat mGlu4 receptor expressed in HEK293 cells. Type of assay: cell-based.
For assay [4] the target is unchanged. Nature of the assay: Ratio of (E)APCPr EC50 to compound EC50 for rat mGlu4 receptor expressed in HEK293 cells. Type of assay: cell-based.
For assay [5] the target is unchanged. The assay can be described thus: Agonist activity at rat mGlu4 receptor expressed in HEK293 cells coexpressing Gq/Gi and EAAC1 assessed as intracellular calcium production at 100 uM measured every 1.5 secs for 60 secs by Fluo-4-AM based fluorometry. It counts as functional, cell-based.

Calls of active or inactive are those of the source. No cut-off for these calls is given here.

Metabotropic glutamate receptor 4 (Rattus norvegicus), sequence (P31423 whole entry): as above

As usually defined, the EC50 is the concentration needed to bring the measured effect to its halfway point. With `N[C@@H](CCP(=O)(O)O)C(=O)O`, the EC50 in assay [1] was found to be 0.43 µM.
For the molecule `N[C@@]1(C(=O)O)C[C@@]1(F)C(O)P(=O)(O)O` (mixture of isomers), the EC50 in assay [2] worked out at 1400 µM.
In the case of `N[C@]1(C(=O)O)C[C@@]1(F)CP(=O)(O)O` (racemic), the Ratio EC50 in assay [3] came out at 10; in assay [4] it was 7. The result in assay [5] was Active. Further, the EC50 in assay [2] was 0.34 µM.
Regarding `N[C@]1(C(=O)O)C[C@@]1(F)CCC(=O)O` (racemic), in assay [2], the concentration giving a half-maximal response (EC50) stood at 609 µM.
On the same count and under the same terms, the value for `N[C@]1(C(=O)O)C[C@@]1(F)CC(=O)O` (racemic) was 465 µM; that for `N[C@]1(C(=O)O)C[C@@]1(F)CS(=O)(=O)O` (racemic) was 85.6 µM.
As to `N[C@]1(C(=O)O)C[C@H]1CP(=O)(O)O` (racemic), in assay [1], the EC50 worked out at 7.9 µM.
Take `N[C@@H](CCC(=O)O)C(=O)O` [GLUTAMIC ACID]: the EC50 in assay [2] worked out at 2.88 µM.

The values are drawn from ChEMBL document CHEMBL2057106, “Α-amino-β-fluorocyclopropanecarboxylic acids as a new tool for drug development: synthesis of glutamic acid analogs and agonist activity towards metabotropic glutamate receptor 4” (Bioorg Med Chem, 2012).
